Measured values: US11571423B2, “Small molecule modulators of human sting” (Curadev Pharma Limited, priority 2017, dated 2023)

How the values were obtained:
hSTING(R232) = hSTING(R232) (Homo sapiens, UniProt Q86WV6, H232R); test: Luciferase reporter assay in HEK293T-hSTING-Luciferase cells, R232 (wild type) human STING; assay type: cell-based; conditions: 20 hr stimulation, read-out: R232 human activity (EC50 range)
Summary of the method: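 After 20 hr compound stimulation of 5×10^5 cells, secreted luciferase in the supernatant was measured by luminescence; values are fold-induction over baseline and EC50. The line is a clonal HEK293T stably carrying a STING plasmid (pUNO-1) and a luciferase reporter under five tandem ISREs fused to an ISG54 promoter.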

[1] = molecular target: cynomolgus monkey STING protein (Macaca fascicularis, UniProt A0A2R3XZA6); test: Luciferase reporter assay, cynomolgus monkey STING overexpressed in HEK293T cells; assay type: cell-based; conditions: cynomolgus monkey STING overexpressed in HEK293T cells; read-out: Cynomolgus monkey STING activity (EC50 range)
Summary of the method: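 HEK293T cells overexpressing cynomolgus STING with a secreted luciferase reporter were stimulated with compound for 20 hr. Supernatant reporter activity was then measured by Quanti-Luc luminescence, and EC50 values were derived.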

hSTING(H232) = hSTING(H232) (Homo sapiens, UniProt Q86WV6); test: Luciferase reporter assay in HEK293T-hSTING-Luciferase cells, H232/REF polymorph; assay type: cell-based; conditions: H232/REF polymorph of human STING, EC50 range class
Summary of the method: (§1)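 HEK293T cells stably co-express the hSTING variant (hEF1-HTLV promoter) and an ISRE/ISG54 IRF-inducible luciferase reporter. Clones with minimal ligand-independent activation were used. Cells were stimulated with compounds for 20 hr, and secreted luciferase in the supernatant was read by luminescence to give EC50.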

hSTING(HAQ) = hSTING(HAQ) (Homo sapiens, UniProt Q86WV6, G230A/H232R/R293Q/R71H); test: Luciferase reporter assay in HEK293T-hSTING-Luciferase cells, HAQ polymorph; assay type: cell-based; conditions: HAQ polymorph of human STING, EC50 range class
Summary of the method: as §1

IRF pathway = test: Reporter gene expression assay in THP1-Dual cells, IRF axis (secreted Lucia luciferase); assay type: cell-based, human; conditions: Homo sapiens, 20 hr stimulation, EC50 range class, read-out: THP-IRF activity
Summary of the method: (§2)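 Human THP-1 monocyte-derived cells with two inducible reporters: 5×10^5 cells seeded and stimulated with compounds for 20 hr. SEAP (QUANTI-Blue) and Lucia luciferase (QUANTI-Luc) measured in supernatant; EC50 values reported as ranges.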

NF-κB pathway = test: Reporter gene expression assay in THP1-Dual cells, NFkB axis (secreted SEAP); assay type: cell-based, human; conditions: Homo sapiens, 20 hr stimulation, EC50 range class, read-out: THP-NFκB activity
Summary of the method: as §2

Chain of hSTING(HAQ) (Q86WV6 whole entry R71H/G230A/H232R/R293Q): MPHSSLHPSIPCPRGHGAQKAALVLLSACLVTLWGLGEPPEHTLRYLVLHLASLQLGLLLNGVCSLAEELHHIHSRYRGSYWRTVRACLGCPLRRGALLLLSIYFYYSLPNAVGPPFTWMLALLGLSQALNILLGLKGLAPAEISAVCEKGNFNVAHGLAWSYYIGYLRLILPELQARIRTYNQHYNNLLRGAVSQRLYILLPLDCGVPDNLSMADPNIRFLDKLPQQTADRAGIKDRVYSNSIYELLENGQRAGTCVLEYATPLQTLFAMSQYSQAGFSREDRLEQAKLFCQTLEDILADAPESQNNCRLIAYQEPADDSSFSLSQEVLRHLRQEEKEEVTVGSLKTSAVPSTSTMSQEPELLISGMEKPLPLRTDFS
Chain of hSTING(H232) (Q86WV6 whole entry): as the sequence (Q86WV6 whole entry R71H/G230A/H232R/R293Q) above, with H71R, A230G, R232H, Q293R counted along it
Chain of cynomolgus monkey STING protein (A0A2R3XZA6 entry or part of it): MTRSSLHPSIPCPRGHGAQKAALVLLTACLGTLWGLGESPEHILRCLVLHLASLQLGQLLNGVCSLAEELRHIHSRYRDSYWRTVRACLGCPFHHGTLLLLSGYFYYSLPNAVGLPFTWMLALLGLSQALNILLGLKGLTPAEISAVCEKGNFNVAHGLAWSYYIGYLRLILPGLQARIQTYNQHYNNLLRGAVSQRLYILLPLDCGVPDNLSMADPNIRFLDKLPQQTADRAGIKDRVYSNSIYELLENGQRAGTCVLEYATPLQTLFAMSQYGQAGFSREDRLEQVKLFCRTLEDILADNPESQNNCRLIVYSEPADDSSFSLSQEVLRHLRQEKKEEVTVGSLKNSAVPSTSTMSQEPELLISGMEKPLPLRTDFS
Chain of hSTING(R232) (Q86WV6 whole entry H232R, the tested form may be a part): as the sequence (Q86WV6 whole entry R71H/G230A/H232R/R293Q) above, with H71R, A230G, Q293R counted along it

| EC50 (hSTING(R232)) | EC50 [1] | EC50 (hSTING(H232)) | EC50 (hSTING(HAQ)) | EC50 (IRF pathway) | EC50 (NF-κB pathway) | Structure (SMILES) |
| --- | --- | --- | --- | --- | --- | --- |
| < 1000 nM | < 1000 nM | < 1000 nM | < 1000 nM | < 1000 nM | < 1000 nM | Cc1nccc(CN2C(=O)N(C)C(C)c3ccc(C(=O)NCc4c(F)cc(F)cc4F)cc32)c1F (stereo not drawn) [Example 180, 1-((3-fluoro-2-methylpyridin-4-yl)methyl)-3,4-dimethyl-2-oxo-N-(2,4,6-trifluorobenzyl)-1,2,3,4-tetrahydroquinazoline-7-carboxamide] |
| < 1000 nM | < 1000 nM | < 1000 nM | < 1000 nM | < 1000 nM | < 1000 nM | C[C@H]1c2ccc(C(=O)NCc3c(F)cc(F)cc3F)cc2N(Cc2c(N)cccc2F)C(=O)N1C [Example 182, (S)-1-(2-amino-6-fluorobenzyl)-3,4-dimethyl-2-oxo-N-(2,4,6-trifluorobenzyl)-1,2,3,4-tetrahydroquinazoline-7-carboxamide] |
| < 1000 nM | < 1000 nM | < 1000 nM | < 1000 nM | < 1000 nM | < 1000 nM | C[C@H]1c2ccc(C(=O)NCc3c(F)cc(F)cc3F)cc2N(Cc2c(F)ccc(N)c2Cl)C(=O)N1C [Example 188, (S)-1-(3-amino-2-chloro-6-fluorobenzyl)-3,4-dimethyl-2-oxo-N-(2,4,6-trifluorobenzyl)-1,2,3,4-tetrahydroquinazoline-7-carboxamide] |
| < 1000 nM | < 1000 nM | < 1000 nM | < 1000 nM | < 1000 nM | < 1000 nM | C[C@H]1c2ccc(C(=O)NCc3c(F)cc(F)cc3F)cc2N(Cc2c(F)cncc2Br)C(=O)N1C [Example 232, (S)-1-((3-bromo-5-fluoropyridin-4-yl)methyl)-3,4-dimethyl-2-oxo-N-(2,4,6-trifluorobenzyl)-1,2,3,4-tetrahydroquinazoline-7-carboxamide] |
| < 1000 nM | < 1000 nM | < 1000 nM | < 1000 nM | < 1000 nM | < 1000 nM | COc1ccc(F)c(F)c1CN1C(=O)N(C)[C@@H](C)c2ccc(C(=O)NCc3c(F)cc(F)cc3F)cc21 [Example 241, (S)-1-(2,3-difluoro-6-methoxybenzyl)-3,4-dimethyl-2-oxo-N-(2,4,6-trifluorobenzyl)-1,2,3,4-tetrahydroquinazoline-7-carboxamide] |
| < 1000 nM | < 1000 nM | < 1000 nM | < 1000 nM | < 1000 nM | < 1000 nM | C[C@H]1c2ccc(C(=O)NCc3c(F)cc(F)cc3F)cc2N(Cc2c(O)ccc(F)c2F)C(=O)N1C [Example 242, (S)-1-(2,3-difluoro-6-hydroxybenzyl)-3,4-dimethyl-2-oxo-N-(2,4,6-trifluorobenzyl)-1,2,3,4-tetrahydroquinazoline-7-carboxamide] |
| < 1000 nM | 1000 to 10000 nM | < 1000 nM | < 1000 nM | < 1000 nM | < 1000 nM | C[C@H]1c2ccc(C(=O)NCc3c(F)cc(F)cc3F)cc2N(Cc2c(F)ccc(OCCCO)c2F)C(=O)N1C [Example 257, (S)-1-(2,6-difluoro-3-(3-hydroxypropoxy)benzyl)-3,4-dimethyl-2-oxo-N-(2,4,6-trifluorobenzyl)-1,2,3,4-tetrahydroquinazoline-7-carboxamide] |
| < 1000 nM | < 1000 nM | < 1000 nM | < 1000 nM | < 1000 nM | < 1000 nM | Cc1nccc(CN2C(=O)N(C)[C@@H](C)c3ccc(C(=O)NCc4c(F)cc(F)cc4F)cc32)c1F [Example 261, (S)-1-((3-fluoro-2-methylpyridin-4-yl)methyl)-3,4-dimethyl-2-oxo-N-(2,4,6-trifluorobenzyl)-1,2,3,4-tetrahydroquinazoline-7-carboxamide] |
| < 1000 nM | < 1000 nM | < 1000 nM | < 1000 nM | < 1000 nM | < 1000 nM | C[C@H]1c2ccc(C(=O)NCc3c(F)cc(F)cc3F)cc2N(Cc2cc(O)ccc2F)C(=O)N1C [Example 262, (S)-1-(2-fluoro-5-hydroxybenzyl)-3,4-dimethyl-2-oxo-N-(2,4,6-trifluorobenzyl)-1,2,3,4-tetrahydroquinazoline-7-carboxamide] |
| < 1000 nM | < 1000 nM | < 1000 nM | < 1000 nM | < 1000 nM | < 1000 nM | C[C@H]1c2ccc(C(=O)NCc3c(F)cc(F)cc3F)cc2N(Cc2cc(O)cc(F)c2F)C(=O)N1C [Example 281, (S)-1-(2,3-difluoro-5-hydroxybenzyl)-3,4-dimethyl-2-oxo-N-(2,4,6-trifluorobenzyl)-1,2,3,4-tetrahydroquinazoline-7-carboxamide] |
| < 1000 nM | 1000 to 10000 nM | < 1000 nM | < 1000 nM | < 1000 nM | < 1000 nM | C[C@H]1c2ccc(C(=O)NCc3c(F)cc(F)cc3F)cc2N(Cc2cc(OCCCO)cc(F)c2F)C(=O)N1C [Example 283, (S)-1-(2,3-difluoro-5-(3-hydroxypropoxy)benzyl)-3,4-dimethyl-2-oxo-N-(2,4,6-trifluorobenzyl)-1,2,3,4-tetrahydroquinazoline-7-carboxamide] |
| < 1000 nM | < 1000 nM | < 1000 nM | < 1000 nM | < 1000 nM | < 1000 nM | C[C@H]1c2ccc(C(=O)NCc3c(F)cc(F)cc3F)cc2N(Cc2c(F)cc(OCCNS(C)(=O)=O)cc2F)C(=O)N1C [Example 290, (S)-1-(2,6-difluoro-4-(2-(methylsulfonamido)ethoxy)benzyl)-3,4-dimethyl-2-oxo-N-(2,4,6-trifluorobenzyl)-1,2,3,4-tetrahydroquinazoline-7-carboxamide] |
| < 1000 nM | < 1000 nM | < 1000 nM | < 1000 nM | < 1000 nM | < 1000 nM | COc1cnc(C)c(F)c1CN1C(=O)N(C)[C@@H](C)c2ccc(C(=O)NCc3c(F)cc(F)cc3F)cc21 [Example 296, (S)-1-((3-fluoro-5-methoxy-2-methylpyridin-4-yl)methyl)-3,4-dimethyl-2-oxo-N-(2,4,6-trifluorobenzyl)-1,2,3,4-tetrahydroquinazoline-7-carboxamide] |
| < 1000 nM | < 1000 nM | < 1000 nM | < 1000 nM | < 1000 nM | < 1000 nM | C[C@H]1c2ccc(C(=O)NCc3c(F)cc(F)cc3F)cc2N(Cc2c(F)cc(O)cc2Cl)C(=O)N1C [Example 298, (S)-1-(2-chloro-6-fluoro-4-hydroxybenzyl)-3,4-dimethyl-2-oxo-N-(2,4,6-trifluorobenzyl)-1,2,3,4-tetrahydroquinazoline-7-carboxamide] |
